Assay results reported in paper PMC10511408, “Novel iodoquinazolinones bearing sulfonamide moiety as potential antioxidants and neuroprotectors” (Scientific Reports, 2023).
Read-outs that look alike come from different tables or passages of the source.

How the values were obtained:
[1] = Free radical scavenging activity (DPPH) assay; details: mean ± S.E (n = 3)
Experimental: The antioxidant activities of all newly synthesized compounds were measured as radical scavenging activities using 1,1-diphenyl-2-picrylhydrazyl (DPPH) (Sigma Chemical Co., Steinheim, Germany) and compared with ascorbic acid as a reference standard (Sigma-Aldrich Chemie GmbH, Taufkirchen, Germany)[46].
Where, 1 mL of the test compounds or ascorbic acid at concentrations (12.5, 25, 50 and 100 mg/mL) were mixed with 1 ml of the DPPH solution. The mixtures were incubated for 30 min at room temperature in dark. The absorbance was read using a JENWAY 6315 spectrophotometer (Keison Products, Chelmsford, England) at 517 nm against blank.
It was carried out in triplicate, and average values were used to determine the inhibitory percentage of DPPH according to the following equation: percent inhibition = [(B − A)/B]*100, where A is the absorbance of the compound or standard and B is the absorbance of blank. IC50 (µM) of each compound was calculated according to the nonlinear regression dose response-inhibition curve using Prism 5.03 (GraphPad, San Diego, CA, USA) and expressed as mean ± standard error (S.E).

[2] = biological target: acetylcholine esterase (AChE) (Homo sapiens, UniProt P22303); assay: biochemical
acetylcholine esterase (AChE), sequence (P22303 32-614): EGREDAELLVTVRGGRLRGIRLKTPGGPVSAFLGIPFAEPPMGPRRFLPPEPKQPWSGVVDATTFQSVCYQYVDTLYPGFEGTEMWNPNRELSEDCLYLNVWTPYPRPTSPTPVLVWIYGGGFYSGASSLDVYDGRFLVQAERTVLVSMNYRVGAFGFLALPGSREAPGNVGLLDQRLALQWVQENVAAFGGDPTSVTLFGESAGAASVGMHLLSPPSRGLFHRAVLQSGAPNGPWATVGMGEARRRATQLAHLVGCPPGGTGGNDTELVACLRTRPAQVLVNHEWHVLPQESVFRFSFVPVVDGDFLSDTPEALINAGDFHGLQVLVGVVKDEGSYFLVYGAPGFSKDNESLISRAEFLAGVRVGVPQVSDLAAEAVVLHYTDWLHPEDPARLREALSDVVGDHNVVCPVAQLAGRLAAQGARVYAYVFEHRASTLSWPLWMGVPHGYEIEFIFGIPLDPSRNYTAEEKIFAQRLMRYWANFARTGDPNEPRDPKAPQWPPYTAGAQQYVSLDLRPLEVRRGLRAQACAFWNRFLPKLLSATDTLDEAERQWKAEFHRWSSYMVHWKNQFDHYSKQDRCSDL
Experimental: The cholinesterase enzymes' inhibitory activity was evaluated using modified Osman et al.[45] method. Briefly, samples were initially dissolved in DMSO to achieve a concentration of 10 mg/mL. Then 0.1 mL of the sample was diluted to 1 mL methanol to reach the concentration of 1 mg/mL (concentration 1). From concentration (1), 0.1 mL was further diluted to 1 mL to reach the concentration of 0.1 mg/mL (concentration 2). Concentration 1 (1 mg/mL) will become 0.1 mg/mL inside the plate and concentration 2 will become 0.01 mg/mL due to the addition of the reagents of the assay that dilute the sample ten folds. […] Then 20 μL of the sample/standard solution was added followed by 140 μL of buffer (1). The mixture was allowed to stand for 15 min at room temperature.

irradiated mice [3] = assay: Open field test in irradiated mice; format: in vivo; details: 14 at 30 mg/kg/day i.p. for 7 days before 5 Gy irradiation
Experimental: (§1) Twenty-one mice were blindly allocated into three groups (n = 7). The first group (control) was injected i.p. with 10% DMSO, daily, for 7 days. The second one (irradiated) was treated as a control, and after 1 h from the last DMSO injection, the mice were exposed to 5 Gy gamma radiation. A third group (Compound 14 + irradiation) received 30 mg/kg/day i.p. (1/10 LD50) of compound 14, daily for 7 days. Then on the last day, after 1 h of injection, animals were irradiated at a dose of 5 Gy. After 24 h. of the last injection, behavioral tests were carried out. Immediately after behavioral test, mice were anesthetized using urethane ([…] i.p.)[49] and sacrificed by cervical dislocation then brain tissues were dissected out, rinsed with ice-cold saline, and dried on a filter paper. Then it was homogenized in ice-cold 0.1 M phosphate buffer saline (pH = 7.4) and stored at – 80 °C for subsequent biochemical analysis.
(§2) All behavioral tests have been carried out under blind conditions to avoid any bias in evaluating the animal's behavior. Mice were allowed to a pre-test session a day before scarification for habituation.
This evaluates locomotors and exploratory activities in mice where, the apparatus is transparent walls and a white floor 30 × 30 × 15 cm, divided into 16 squares of equal area. Each mouse was placed in the center of the open field test apparatus and allowed to roam freely for 5 min and latency time (ie, time taken to start moving) was detected as well as locomotion frequency as ambulation (ie, number of squares crossed), rearing frequency (ie, number of times the mice stand on its hind legs or with its forearm against the wall or in the free air)[50].

Glutathione (GSH) = assay: GSH level in brain tissue homogenate of irradiated mice; format: in vivo; details: 14 at 30 mg/kg/day i.p. for 7 days, 5 Gy; compared to irradiated mice
Experimental: as §1
(§3) The antioxidant activity of compound 14 was measured by estimation of MPO activity using an ELISA Kit from MyBioSource Cat.No.: CSB-E08723m (Houston, TX., USA) as well as the level of GSH was evaluated using a colorimetric kit according to the method of E. Beutler[52].

[4] = Acute toxicity study (LD50); details: mouse, in vivo, ip; albino male mice, i.p.; read-out: LD50 (median lethal dose)
Experimental: Lethal dose fifty (LD50) was determined for the most promising compound 14 to estimate its acute toxicity in albino male mice. […] Consequently, one-tenth of this dose was selected as the therapeutic dose for further evaluation of the potential radioprotective effects of 14. This was following our previous studies[42],[63],[68].

Norepinephrine (NE) = assay: Norepinephrine in brain tissue homogenate of irradiated mice (ELISA); format: in vivo; details: 14 at 30 mg/kg/day i.p. for 7 days, 5 Gy; Fig. 6B
Experimental: (§4) Twenty-one mice were blindly allocated into three groups (n = 7). The first group (control) was injected i.p. with 10% DMSO, daily, for 7 days. […]. A third group (Compound 14 + irradiation) received 30 mg/kg/day i.p. (1/10 LD50) of compound 14, daily for 7 days. Then on the last day, after 1 h of injection, animals were irradiated at a dose of 5 Gy. After 24 h. of the last injection, behavioral tests were carried out. […]. Then it was homogenized in ice-cold 0.1 M phosphate buffer saline (pH = 7.4) and stored at – 80 °C for subsequent biochemical analysis.
(§5) Brain homogenates were used for measuring AChE using Mouse Acetylcholinesterase (AChE) ELISA Kit content using the Mouse Acetylcholinesterase ELISA Kit from MyBioSource Cat.No. MBS260553 (San Diego, CA., USA) according to the manufacturer’s instructions. The generation of norepinephrine (NE) in brain tissues was measured using an Eliza kit (MBS2600834) from MyBioSource (San Diego, CA, USA) according to the manufacturer’s instructions.

Myeloperoxidase (MPO) = assay: MPO in brain tissue homogenate of irradiated mice (ELISA); format: in vivo; details: 14 at 30 mg/kg/day i.p. for 7 days, 5 Gy; compared to irradiated mice
Experimental: as §1, §3

[5] = test system: Acetylcholinesterase (AChE); assay: AChE in brain tissue homogenate of irradiated mice (ELISA); format: in vivo; details: 14 at 30 mg/kg/day i.p. for 7 days, 5 Gy; compared to radiation only
Experimental: as §4, §5

irradiated mice [6] = assay: Forced swimming test in irradiated mice; format: in vivo; details: 14 at 30 mg/kg/day i.p. for 7 days before 5 Gy irradiation; compared to radiation only
Experimental: as §1, §2
Mice were independently forced to swim in an open cylindrical container (22 cm diameter, 40 cm height) that contained water (23–25 °C).

[7] = in vitro, mean ± S.E (n = 3), read-out: AChE IC50

| Structure (SMILES) | IC50 [1] | IC50 [2, 7] | other results |
| --- | --- | --- | --- |
| NS(=O)(=O)c1ccc(-n2c(SCC(=O)Nc3nc4ccc([N+](=O)[O-])cc4s3)nc3ccc(I)cc3c2=O)cc1 [Compound 8, 2-(6-Iodo-4-oxo-3-(4-sulfamoylphenyl)-3,4-dihydroquinazolin-2-ylthio)-N-(6-nitrobenzo[d]thiazol-2-yl) acetamide] | 177 ± 1.99 µM | > 0.1 µM | – |
| NS(=O)(=O)c1ccc(-n2c(SCC(=O)NC3CCN(Cc4ccccc4)CC3)nc3ccc(I)cc3c2=O)cc1 [Compound 11, N-(1-Benzylpiperidin-4-yl)-2-(6-iodo-4-oxo-3-(4-sulfamoylphenyl)-3,4-dihydroquinazolin-2-ylthio) acetamide] | 109 ± 1.09 µM | 0.0239 ± 0.00141 µM | – |
| CCOc1ccc2nc(NC(=O)CSc3nc4ccc(I)cc4c(=O)n3-c3ccc(S(N)(=O)=O)cc3)sc2c1 [Compound 7, N-(6-Ethoxybenzo[d]thiazol-2-yl)-2-(6-iodo-4-oxo-3-(4-sulfamoylphenyl)-3,4-dihydroquinazolin-2-ylthio) acetamide] | 118.8 ± 0.92 µM | 0.09 ± 0.00583 µM | – |
| Cn1c(NC(=O)CSc2nc3ccc(I)cc3c(=O)n2-c2ccc(S(N)(=O)=O)cc2)cc(=O)n(C)c1=O [Compound 16, N-(1,3-Dimethyl-2,6-dioxo-1,2,3,6-tetrahydropyrimidin-4-yl)-2-(6-iodo-4-oxo-3-(4-sulfamoylphenyl)-3,4-dihydroquinazolin-2-ylthio) acetamide] | 137.3 ± 0.29 µM | 0.0862 ± 0.00214 µM | – |
| NS(=O)(=O)c1ccc(-n2c(SCC(=O)Nc3cnccn3)nc3ccc(I)cc3c2=O)cc1 [Compound 14, 2-(6-Iodo-4-oxo-3-(4-sulfamoylphenyl)-3,4-dihydroquinazolin-2-ylthio)-N-(pyrazin-2-yl) acetamide] | 95.5 ± 1.67 µM | 0.0116 ± 0.00045 µM | ambulation (open field test), effect of radiation abolished by (irradiated mice [3]): 31%; open field parameters (latency, ambulation, rearing) (irradiated mice [3]): normalized all open field parameters; decrease in latency time (open field test) (irradiated mice [3]; compared with mice that received radiation alone): 72.4%; increase in brain GSH levels (Glutathione (GSH)): 17%; LD50 [4]: 300 mg/kg; Norepinephrine (NE), effect of radiation abolished by (Norepinephrine (NE)): 25%; decrease in brain MPO (Myeloperoxidase (MPO)): 39.6%; decrease in brain AChE [5]: 21%; decrease in mean immobility time (forced swimming test) (irradiated mice [6]): 33% |
| O=C1O[C@H]([C@@H](O)CO)C(O)=C1O [Ascorbic acid, ascorbic acid, reference compound] | 112.8 ± 1.03 µM | – | – |
| CCOC(=O)N1CCC(NC(=O)CSc2nc3ccc(I)cc3c(=O)n2-c2ccc(S(N)(=O)=O)cc2)CC1 [Compound 10, Ethyl 4-(2-(6-iodo-4-oxo-3-(4-sulfamoylphenyl)-3,4-dihydroquinazolin-2-ylthio)acetamido) piperidine-1-carboxylate] | 154.9 ± 1.24 µM | – | IC50 [2]: > 0.1 µM |
| NS(=O)(=O)c1ccc(-n2c(SCC(=O)NN3CCOCC3)nc3ccc(I)cc3c2=O)cc1 [Compound 9, 2-(6-Iodo-4-oxo-3-(4-sulfamoylphenyl)-3,4-dihydroquinazolin-2-ylthio)-N-morpholinoacetamide] | 148 ± 1.53 µM | > 0.1 µM | – |
| NS(=O)(=O)c1ccc(-n2c(SCC(=O)Nc3c[nH]c(=O)[nH]c3=O)nc3ccc(I)cc3c2=O)cc1 [Compound 15, N-(2,4-Dioxo-1,2,3,4-tetrahydropyrimidin-5-yl)-2-(6-iodo-4-oxo-3-(4-sulfamoylphenyl)-3,4-dihydroquinazolin-2-ylthio) acetamide] | 136.3 ± 1.3 µM | > 0.1 µM | – |
| CCOC(=O)c1ccccc1NC(=O)CSc1nc2ccc(I)cc2c(=O)n1-c1ccc(S(N)(=O)=O)cc1 [Compound 12, Ethyl 2-(2-(6-iodo-4-oxo-3-(4-sulfamoylphenyl)-3,4-dihydroquinazolin-2-ylthio)acetamido)benzoate] | 122.3 ± 0.92 µM | 0.0607 ± 0.0028 µM | – |
| Cc1cc(NC(=O)CSc2nc3ccc(I)cc3c(=O)n2-c2ccc(S(N)(=O)=O)cc2)no1 [Compound 5, 2-(6-Iodo-4-oxo-3-(4-sulfamoylphenyl)-3,4-dihydroquinazolin-2-ylthio)-N-(5-methylisoxazol-3-yl) acetamide] | 149.8 ± 1.26 µM | > 0.1 µM | – |
| CCOC(=O)c1cccc(NC(=O)CSc2nc3ccc(I)cc3c(=O)n2-c2ccc(S(N)(=O)=O)cc2)c1 [Compound 13, Ethyl 3-(2-(6-iodo-4-oxo-3-(4-sulfamoylphenyl)-3,4-dihydroquinazolin-2-ylthio)acetamido)benzoate] | 129.1 ± 1.03 µM | 0.0748 ± 0.00306 µM | – |
| NS(=O)(=O)c1ccc(-n2c(SCC(=O)Nc3nccs3)nc3ccc(I)cc3c2=O)cc1 [Compound 6, 2-(6-Iodo-4-oxo-3-(4-sulfamoylphenyl)-3,4-dihydroquinazolin-2-ylthio)-N-(thiazol-2-yl) acetamide] | 143.4 ± 1.12 µM | > 0.1 µM | – |
| CN1C(=O)c2ccc(NC(=O)CSc3nc4ccc(I)cc4c(=O)n3-c3ccc(S(N)(=O)=O)cc3)cc2C1=O [Compound 17, 2-(6-Iodo 4-oxo-3-(4-sulfamoylphenyl)-3,4-dihydroquinazolin-2-ylthio)-N-(2-methyl-1,3-dioxoisoindolin-5-yl) acetamide] | 127 ± 1.93 µM | 0.0774 ± 0.00129 µM | – |
